For the assay, the system named is Plasmodium falciparum 3D7. As to the kind of experiment: pEC50, asexual blood-stage growth inhibition. The settings on record: 72 h. How it is done: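 Held-out test set measured in the Guy lab in 2014 with the same procedure as the primary St. Jude screen. P. falciparum 3D7 blood-stage culture (2% hematocrit, 1% parasitemia) was treated with compound for 72 h at 37 °C, and growth was read by SYBR Green I fluorescence. EC50 came from a four-parameter Hill fit over a 10-point dilution series […].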
As to `CCOc1ccc(C(O)Cn2c(=N)n(CCN3CCCCC3)c3ccccc32)cc1` (stereo not drawn), the pEC50 is under 4.82.
The same measure for `CCn1ncc(Cl)c1C(=O)Nc1ccc(C)c([N+](=O)[O-])c1`: under 4.82; for `OC(CNCc1ccc(OCc2ccccc2)cc1)c1ccccc1` (stereo not drawn): 5.38; for `OC(CN1CCCCCC1)Cn1c2ccccc2c2ccccc21` (stereo not drawn): under 4.82.
As to `OCC(O)Cn1c2ccc(Br)cc2c2cc(Br)ccc21` (stereo not drawn), the pEC50 is under 4.82.
The compound `COCCNCC(O)Cn1c2ccc(Cl)cc2c2cc(Cl)ccc21` (stereo not drawn) returned a pEC50 of 5.63.
The value for `O=C(Cc1ccccc1)Nc1ccc(-c2nc3cc(NC(=O)Cc4ccccc4)ccc3[nH]2)cc1` was under 4.82.
`OC(CNc1ccccc1)Cn1c2ccc(Cl)cc2c2cc(Cl)ccc21` (stereo not drawn) showed a pEC50 of 5.36.
The same measure for `O=S(=O)(/C=C/c1ccccc1)N1CCC(CO)(Cc2cccc(C(F)(F)F)c2)CC1`: under 4.82; for `Cc1cc(C)c(C)c(Oc2cc(NC(=O)c3c(I)cnn3C)cc([N+](=O)[O-])c2)c1`: 6.28; for `Cc1nn(C)c(C(=O)NNC(=O)Nc2ccc([N+](=O)[O-])cc2)c1Cl`: 6.93.
The value for `CCCn1nnnc1NCc1cc(Br)c(OCc2ccccc2)c(OC)c1` was under 4.82; that for `CC(C)c1ccc(/C=C/C(=O)Nc2cccc(Cl)c2)cc1` was under 4.82.
The value for `CCOc1cc2c(cc1OCC)C(c1ccc(O)cc1)NCC2` (stereo not drawn) was under 4.82; that for `Cc1cc(C)nc(Nc2ncc(O)n2-c2cccc(C(F)(F)F)c2)n1` was under 4.82.
`CN(C)CCCn1c(=N)n(CC(O)c2ccc(Br)cc2)c2ccccc21` (stereo not drawn) displayed a pEC50 of 5.54.
The same measure for `CCOC(=O)C1=C(C)NC2=C(C(=O)CC(c3ccc(Cl)cc3)C2)C1c1ccc(OCC)cc1` (stereo not drawn): under 4.82; for `CC(C)c1ccc(/C=C/C(=O)Nc2cccc(F)c2)cc1`: under 4.82.
As for `CCOC(=O)c1c(C)oc2ccc(OC)cc12`, the pEC50 was under 4.82.
The value for `OC(CNCc1ccc(-c2ccccc2)cc1)c1ccccc1` (stereo not drawn) was under 4.82; that for `Cc1ccc(OCC(O)Cn2c(=N)n(CCN3CCOCC3)c3ccccc32)cc1` (stereo not drawn) was under 4.82.
As for `CN(C)c1ccc(NC(=O)/C=C/c2ccccc2Cl)cc1`, the pEC50 amounted to 4.99.
Turning to `Cc1cc(OCC(O)CNC2CCCC2)ccc1Cl` (stereo not drawn), the pEC50 amounted to 6.61.
The value for `OC(CNCCOc1ccccc1)Cn1c2ccccc2c2ccccc21` (stereo not drawn) was under 4.82; that for `Cc1ccc2c(c1)c1c3n2CCCN(Cc2ccc(C(C)C)cc2)C3CCC1` (stereo not drawn) was under 4.82; that for `OC(CNCCc1ccccc1)c1ccccc1` (stereo not drawn) was 5.05.
The value for `Cc1ccc(Nc2cc(N3CCN(C(=O)c4ccc(C)cc4)CC3)ncn2)cc1` was 6.13; that for `O=C(CNCc1ccccc1)c1ccc(Br)cc1` was under 4.82; that for `O=C(NC1CCCCC1)c1cn(C2CC2)cc(C(=O)NC2CCN(Cc3ccccc3)CC2)c1=O` was under 4.82.
Consider `COC(=O)[C@@H](NC(=O)c1cn(C2CCCCC2)cc(C(=O)NC(C)(C)C)c1=O)c1ccccc1`, for which the pEC50 was under 4.82.
Turning to `Cc1cccc2c(C(=O)N3CCN(Cc4ccccc4)CC3)cc(-c3cccnc3)nc12`, the pEC50 was 5.25.
The same measure for `CCN(CC)CCn1c(=N)n(CC(O)COc2ccccc2)c2ccccc21` (stereo not drawn): under 4.82; for `Cc1c(Cl)ccc2c(C(=O)NCCN3CCOCC3)cc(-c3ccncc3)nc12`: under 4.82; for `O=C(Nc1cc(Cl)ccc1O)c1cnn2c1NC(c1ccc(Br)cc1)CC2C(F)(F)F` (stereo not drawn): under 4.82.
The value for `CN(C)Cc1c(O)ccc2c(=O)c(Oc3ccc(C(C)(C)C)cc3)c(C(F)(F)F)oc12` was 5.24; that for `CCOc1ccc(-c2nonc2NC(=O)c2ccco2)cc1` was 6.71; that for `Cc1cccc(CN2CCCn3c4c(c5cc(C)ccc53)CCCC42)c1` (stereo not drawn) was 5.33.
The same measure for `CCc1cccc(NC(=O)/C=C/c2ccccc2Cl)c1`: 5.36; for `CCC(C)c1ccc(NC(=O)/C=C/c2cccc(Cl)c2)cc1` (stereo not drawn): under 4.82.
The compound `c1cc(-c2nc3ccccc3[nH]2)nc(-c2nc3ccccc3[nH]2)c1` gave a negative logarithm of the EC50 (pEC50) of 5.39.
The value for `CCOC(=O)C1=C(C)NC2=C(C(=O)CC(c3ccc(OC)cc3)C2)C1c1cc(Br)c(O)c(OC)c1` (stereo not drawn) was 5.3; that for `OC(CNC1CC1)Cn1c2ccccc2c2ccccc21` (stereo not drawn) was under 4.82; that for `COc1ccc(OC)c(C2CC(=O)NC3=C2C(=O)CC(c2ccc(OC)c(OC)c2)C3)c1` (stereo not drawn) was under 4.82.
Regarding `CCOc1cc(C2CC(=O)NC3=C2C(=O)CC(c2ccc(OC)c(OC)c2)C3)cc(Cl)c1O` (stereo not drawn), the pEC50 was found to be 6.68.
On to `COc1ccc(Oc2c(C(F)(F)F)oc3c(CN4CCCC(C)C4)c(O)ccc3c2=O)cc1` (stereo not drawn), for which the pEC50 is under 4.82.
The same measure for `CC(C)(CO)NCC(O)Cn1c2ccc(Cl)cc2c2cc(Cl)ccc21` (stereo not drawn): 5.29.
`COc1ccc(C(O)Cn2c(=N)n(CCN3CCCCC3)c3ccccc32)cc1` (stereo not drawn) had a pEC50 of under 4.82.
The same measure for `CCN1/C(=C/c2sc3ccc(O)cc3[n+]2CC)C=Cc2cc(C)ccc21`: 6.3; for `Cc1cccc(NCC(O)Cn2c3ccc(Br)cc3c3cc(Br)ccc32)c1C` (stereo not drawn): 5.21.
The compound `CCOc1cc(C2C(C(=O)OCCOC)=C(C)NC3=C2C(=O)CC(c2ccc(Cl)cc2)C3)ccc1O` (stereo not drawn) came in with a pEC50 of 5.52.
`N=c1n(CCN2CCCCC2)c2ccccc2n1CC(O)c1cccc2ccccc12` (stereo not drawn): the pEC50 stood at 5.49.
The same measure for `CCN1\C(=C/C=C(C)/C=C/c2sc3ccccc3[n+]2CC)Sc2ccccc21`: 5.34.
The same measure for `CCOC(=O)c1cccc(NC(=O)CC2C(=O)N(c3ccc(F)cc3)C(=O)N2Cc2ccccn2)c1` (stereo not drawn): under 4.82; for `C=CCN1C(=O)CS/C1=C\c1sc2ccccc2[n+]1CC`: 5.31.
The value for `CN(C)c1nc(N(C#N)CCOc2ccccc2)nc(N2CCOCC2)n1` was under 4.82; that for `CC(C)N1CCN(Cc2cc(Br)ccc2O)CC1` was under 4.82.
In turn, `COc1ccc(C2CC(=O)C3=C(C2)NC(=O)CC3c2ccc(Cl)cc2Cl)cc1OC` (stereo not drawn) had a pEC50 of 5.7.
On to `COc1ccccc1-c1c(C(F)(F)F)oc2c(CN(C)C3CCCCC3)c(O)ccc2c1=O`, for which the pEC50 is under 4.82.
The value for `Cc1cccc(C2(c3cccc(C)c3)CC2C(=O)Nc2cc([N+](=O)[O-])ccc2O)c1` (stereo not drawn) was 5.27; that for `N=c1n(CCN2CCCC2)c2ccccc2n1CC(O)c1ccc(Cl)c(Cl)c1` (stereo not drawn) was 5.88; that for `O=c1c(Oc2ccccc2)c(C(F)(F)F)oc2c(CN3CCCCC3)c(O)ccc12` was under 4.82.
The value for `CCn1c(SCC(=O)Nc2cc(C(F)(F)F)ccc2Cl)nnc1-c1ccccc1Cl` was under 4.82; that for `COc1ccc(C2CC(=O)NC3=C2C(=O)CC(c2ccc(OC)c(OC)c2)C3)c(OC)c1` (stereo not drawn) was under 4.82.
The value for `CC(C)(C)NC(=O)c1cn(C2CCCCC2)cc(C(=O)N2CCC(c3ccccc3)CC2)c1=O` was under 4.82; that for `Cc1ccccc1OCC(O)CNC1CCCCC1` (stereo not drawn) was under 4.82.
Compound `CCCCn1c(=N)n(CC(=O)c2ccc(Cl)cc2)c2ccccc21` registered a pEC50 of under 4.82.
The value for `CCCCNC(=O)c1cn(C2CCCCC2)cc(C(=O)NC2CCN(Cc3ccccc3)CC2)c1=O` was under 4.82.
`OCCC1CN(Cc2cc(Cl)ccc2O)CCN1CCc1ccccc1` (stereo not drawn) registered a pEC50 of under 4.82.
In the case of `Cc1ccccc1Cn1c(=N)n(CC(O)c2ccc(Cl)c(Cl)c2)c2ccccc21` (stereo not drawn), the pEC50 is 6.39.
`COc1ccc(S(=O)(=O)N2CCC(CO)(Cc3ccccc3C(F)(F)F)CC2)cc1` yielded a pEC50 of under 4.82.
The same measure for `O=C(NC1CCN(Cc2ccccc2)CC1)c1cc(-c2ccncc2)nc2ccc(Cl)cc12`: 5.54.
Regarding `COc1ccc(Cl)cc1NCC(O)Cn1c2ccccc2c2ccccc21` (stereo not drawn), the pEC50 is under 4.82.
The value for `OC(CNCc1ccccc1)Cn1c2ccc(Cl)cc2c2cc(Cl)ccc21` (stereo not drawn) was 5.73; that for `CCOC(=O)C1=C(C)NC2=C(C(=O)CC(c3ccc(Cl)cc3)C2)C1c1ccc(OC)cc1` (stereo not drawn) was 5.93.
The same measure for `COCCOC(=O)C1=C(C)NC2=C(C(=O)CC(c3ccc(OC)cc3)C2)C1c1ccc(Cl)cc1` (stereo not drawn): 6.17; for `COc1ccc(OC)c(NCC(O)Cn2c3ccc(Cl)cc3c3cc(Cl)ccc32)c1` (stereo not drawn): under 4.82.
The value for `OC(CNc1ccccc1)Cn1c2ccccc2c2ccccc21` (stereo not drawn) was under 4.82; that for `CCOC(=O)C1=C(C)NC2=C(C(=O)CC(c3ccccc3)C2)C1c1cc(Cl)c(O)c(OC)c1` (stereo not drawn) was under 4.82; that for `CCOc1cc(C2C(C(=O)OCCOc3ccccc3)=C(C)NC3=C2C(=O)CC(c2ccc(Cl)cc2)C3)ccc1O` (stereo not drawn) was under 4.82.
Turning to `Fc1ccccc1N1CCN(CC2CC3C=CC2C3)CC1` (stereo not drawn), the pEC50 was under 4.82.
The same measure for `COc1ccc(CN2CCCn3c4c(c5cc(C)ccc53)CCCC42)cc1` (stereo not drawn): under 4.82; for `CCCCN(CCCC)CC(O)COc1ccccc1C` (stereo not drawn): 6.06; for `COC(=O)c1ccc(NC(=O)/C=C/c2ccccc2Cl)cc1`: 5.26.
The compound `OC(CNC1CCCC1)COc1ccccc1-c1ccccc1` (stereo not drawn) came in with a pEC50 of under 4.82.
The same measure for `CC(C)c1ccc(NC(=O)/C=C/c2ccccc2)cc1`: 5.16; for `COc1cccc(-c2cc(C(=O)N3CCN(Cc4ccccc4)CC3)c3ccccc3n2)c1`: under 4.82.
The compound `C=CCN1C(=O)N(c2ccc(Cl)cc2)C(=O)C1CC(=O)Nc1ccc(F)cc1` (stereo not drawn) gave a pEC50 of under 4.82.
The value for `COc1ccc(C2CC(=O)NC3=C2C(=O)CC(c2ccccc2)C3)cc1OC` (stereo not drawn) was 5.34.
The same measure for `Cc1ccc2c(c1)c1c3n2CCCN(Cc2ccccc2F)C3CCC1` (stereo not drawn): 5.01; for `CCOc1cc(C2C(C(=O)OC(C)CC)=C(C)NC3=C2C(=O)CC(c2ccc(Cl)cc2)C3)ccc1O` (stereo not drawn): under 4.82.
The compound `OC(CNCc1cccc(Cl)c1)c1ccccc1` (stereo not drawn) came in with a pEC50 of under 4.82.
The same measure for `O=C1CC(c2ccc(Cl)c([N+](=O)[O-])c2)C2=C(CC(c3cccs3)CC2=O)N1` (stereo not drawn): under 4.82.
The value for `O=c1c(Oc2ccccc2Cl)c(C(F)(F)F)oc2c(CN3CCCCC3)c(O)ccc12` was under 4.82.

As usually defined, the pEC50 is the negative decadic logarithm of the EC50, by convention in mol/L. A low value points to a high EC50.

Values taken from the supplement of paper PMC5580409.
